From patent publication US8268874B2, “Anti-cancer compounds, synthesis thereof, and methods of using same” (University of Notre Dame du Lac, priority 2008, dated 2012)
Read-outs that look alike come from different tables or passages of the source.

How the values were obtained:
PC-3 (Prostate) = assay: NCI anti-cancer drug screen, growth inhibition of PC-3 cells; format: cell-based; conditions: Homo sapiens; for IC50: Table 5
Text: (§1) For additional details pertaining to the assay, see, for example, Shoemaker, R. H., The NCI60 Human Tumour Cell line Anticancer Drug Screen, Nature Reviews, 6: 813-823, 2006, the disclosure of which is hereby incorporated by reference in its entirety.
(§2) Briefly, the cell lines comprising the National Cancer Institute Anti-cancer Drug Screen panel were obtained and processed as described previously. After an initial acquisition, in vitro expansion was followed by cryopreservation of a large number of master stock samples, for serial rethawing at 20-passage intervals. The parental cells included the small cell lung carcinoma cell line UMCC-1, the human leukemia cell line HL-60, estrogen receptor-positive MCF7 and ZR-75B human breast carcinoma cells, and estrogen receptor-negative MDA-MB231 human breast carcinoma cells. The parental cells were grown in monolayers or in suspension in Eagle's minimum essential medium containing 10% fetal bovine serum, 2 mM L-glutamine, 100 units/ml penicillin, and 100 μg/ml streptomycin in 5% CO2 at 37° C.
(§3) The current version of COMPARE is configured to calculate pairwise correlations with the log10 of one of the specific National Cancer Institute cell line activity parameters GI50, TGI, or LC50. The GI50 is the National Cancer Institute designation for a time zero-corrected IC50 value and is defined as the concentration of an agent that causes a 50% growth inhibition. Thus, log10 (GI50 values) for a seed or probe compound is correlated with the corresponding data from each compound in a database.
Various analogs of the oxazole triazole scaffold were prepared and tested for their anti-cancer activity in various cellular assays (testing was done as described previously).

[1] = tested on: human breast cancer cell line MCF-7; assay: NCI anti-cancer drug screen, growth inhibition of MCF-7 cells; format: cell-based
Text: as §1, §2, §3

M. tuberculosis H37Rv = assay: In vitro anti-tuberculosis activity, standard GAST assay; format: cell-based, Mycobacterium tuberculosis; conditions: in words
[2] = tested on: human leukemia cell line HL-60; assay: In vitro anti-cancer activity against HL-60 cells; format: cell-based; conditions: Table 1
Text: as §1, §2, §3

[3] = tested on: vincristine-resistant leukemia cell line, HL-60 VCR, that overexpresses p-glycoprotein; assay: In vitro anti-cancer activity against HL-60 VCR cells; format: cell-based, human; conditions: Table 1, p-glycoprotein overexpressing
Text: as §1, §2, §3

cell cycle = assay: Cell cycle arrest (FIG. 5); format: cell-based
Text: FIG. 5 illustrates cell cycle arrest showing G2/M-phase arrest in cells treated with 1,2,3-triazole 9c (ND-6732), in accordance with various embodiments.
Without being bound by theory, it is believed that the anti-cancer activity of various disclosed compounds disclosed herein is due to antimitotic activity.

[4] = tested on: multiple colon cancer cell lines; assay: NCI assay, multiple colon cancer cell lines (FIG. 3); format: cell-based, human; conditions: applied at nanomolar concentrations
Text: FIG. 3 illustrates the potent anti-cancer activity of various compounds disclosed herein in the NCI assay using multiple colon cancer cell lines, in accordance with various embodiments.
as §1

RXF 393 (Renal) = assay: NCI anti-cancer drug screen, growth inhibition of RXF 393 cells; format: cell-based; conditions: Homo sapiens, Table 5
Text: as §1, §2
(§4) The current version of COMPARE is configured to calculate pairwise correlations with the log10 of one of the specific National Cancer Institute cell line activity parameters GI50, TGI, or LC50. […]

CAKI-1 (Renal) = assay: NCI anti-cancer drug screen, growth inhibition of CAKI-1 cells; format: cell-based; conditions: Homo sapiens, Table 5
Text: as §1, §2, §4

[5] = tested on: multiple cell lines of leukemia; assay: NCI assay, multiple leukemia cell lines (FIG. 2); format: cell-based, human; conditions: applied at nanomolar concentrations
Text: FIG. 2 illustrates the potent anti-cancer activity of various compounds disclosed herein in the NCI assay using multiple leukemia cell lines, in accordance with various embodiments.
as §1

SR (Leukemia) = assay: NCI anti-cancer drug screen, growth inhibition of SR cells; format: cell-based; conditions: Homo sapiens, Table 5
Text: as §1, §2, §4

[6] = Homo sapiens, MCF7, Table 5, read-out: IC50 MCF-7 (Breast)
[7] = Homo sapiens, MCF7, read-out: IC50 MCF-7 (Breast)
[8] = Homo sapiens, MCF7, Table 3, SAR truncation of aryl carboxamide moiety, read-out: MCF7 IC50
[9] = Homo sapiens, MCF7, Table 2, SAR truncation of aryl ether moiety, read-out: MCF7 IC50
[10] = MCF7, Table 1, human breast cancer cell line MCF-7, read-out: IC50 MCF-7

Compound	IC50 (PC-3 (Prostate))	IC50 [1, 6]	further results
CC(=O)NCc1cn(Cc2cccc(Oc3ccccc3)c2)nn1 [ND-008492]	17 µM	6 µM	–
CC(C)(C)[Si](C)(C)Oc1cccc(Cn2cc(CNC(=O)c3coc(-c4ccc(Cl)cc4)n3)nn2)c1 [ND-008183]	> 50 µM	–	IC50 [1, 7]: 13 µM
COc1ccc(-c2nc(C(=O)Nc3cn(Cc4ccc(Oc5ccccc5)cc4)nn3)co2)cc1 [ND-007887]	1.25 µM	0.937 µM	–
CCCCCCCCn1cc(CNCc2coc(-c3ccc(OC)cc3)n2)nn1 [ND-008171]	> 100 µM	15 µM	–
O=C(NCc1cn(Cc2cccc(Oc3ccccc3)c2)nn1)c1ccccc1 [ND-008506]	0.5 µM	0.2 µM	–
O=C(NCc1cn(Cc2cccc(Oc3ccccc3)c2)nn1)c1ccccc1 [Compound 16]	–	–	IC50 [1, 8]: 0.2 µM
Cc1ccc(Cn2cc(CNC(=O)c3coc(-c4ccc(C)cc4)n3)nn2)cc1 [ND-008465]	20 µM	8 µM	–
Mycobactin S [reference compound]	–	–	anti-tuberculosis activity (M. tuberculosis H37Rv): exhibits anti-tuberculosis activity
O=C(NCc1cn(C23CC4CC(CC(C4)C2)C3)nn1)c1coc(-c2ccc(Cl)cc2)n1 [ND-008471]	> 20 µM	> 20 µM	–
Cc1ccc(-c2nc(C(=O)NCc3cn(Cc4cccc(Oc5ccccc5)c4)nn3)co2)cc1 [ND-008467]	1 µM	0.3 µM	–
O=C(NCc1cn(Cc2cccc(Oc3ccccc3)c2)nn1)c1ccccn1 [Compound 14]	–	–	IC50 [1, 8]: 0.07 µM
CCCCCCCCn1cc(CNC(=O)c2coc(-c3ccc(C)cc3)n2)nn1 [ND-008469]	> 20 µM	20 µM	–
COc1ccc(-c2ccc(CNCc3cn(Cc4ccc(Oc5ccccc5)cc4)nn3)s2)cc1 [ND-008174]	10 µM	3 µM	–
COc1cc2c(cc1O)CC[C@@H]1[C@@H]2CC[C@]2(C)[C@@H](O)CC[C@@H]12 [2-methoxyestradiol]	–	–	IC50 [2]: 9.15 µM; IC50 ([1]; Table 1, human breast cancer cell line MCF-7, read-out: IC50 MCF-7): 1.3 µM; IC50 [3]: 48 µM
OCc1cn(Cc2cccc(Oc3ccccc3)c2)nn1 [ND-008493]	> 20 µM	> 20 µM	–
O=C(NCc1cn(Cc2cccc(Oc3ccccc3)c2)nn1)c1coc(-c2ccccc2)n1 [Compound 9c]	0.504 µM	0.302 µM	cell cycle arrest (cell cycle): cell cycle arrest at the G2M phase of mitosis; growth inhibition of multiple cell lines of colon cancer [4]: ≥ 50%; GI50 (PC-3 (Prostate)): 0.504 µM; IC50 [2]: 7.9 µM; GI50 ([1]; Homo sapiens, MCF7): 0.302 µM; IC50 [1, 9]: 0.5 µM; IC50 [1, 10]: 0.5 µM; IC50 (RXF 393 (Renal)): 0.299 µM; IC50 (CAKI-1 (Renal)): 0.392 µM; growth inhibition of multiple cell lines of leukemia [5]: ≥ 50%; IC50 (SR (Leukemia)): 0.484 µM; IC50 ([3]; Homo sapiens, HL60/VCR): 12.2 µM
O=C(NCc1cn(Cc2cccc(Oc3ccccc3)c2)nn1)c1ccccn1 [ND-008504]	0.3 µM	0.15 µM	–
COc1ccc(CNC(=O)c2coc(-c3cccc(Cl)c3)n2)cc1OC [Compound 3]	–	–	anti-tuberculosis activity (M. tuberculosis H37Rv): active against M. tuberculosis
Cc1ccc(-c2nc(C(=O)NCc3cn(C45CC6CC(CC(C6)C4)C5)nn3)co2)cc1 [ND-008470]	> 20 µM	> 20 µM	–
Cc1ccc(-c2nc(C(=O)NCc3cn(Cc4cccc(O[Si](C)(C)C(C)(C)C)c4)nn3)co2)cc1 [ND-008468]	20 µM	–	IC50 [1, 7]: 15 µM
C#CCNC(=O)c1coc(-c2ccccc2)n1 [Compound 8a]	–	–	IC50 [1, 9]: > 20 µM
O=C(OCc1ccccc1)[C@@H]1COC(c2ccccc2OCc2ccccc2)=N1 [Compound 2]	–	–	anti-tuberculosis activity (M. tuberculosis H37Rv): exhibited anti-tuberculosis activity with potency similar to that of Mycobactin S
O=C(NCc1cn(Cc2cccc(Oc3ccccc3)c2)nn1)c1coc(-c2ccc(Cl)cc2)n1 [ND-008186]	2.4 µM	4 µM	–
CC(=O)NCc1cn(Cc2cccc(Oc3ccccc3)c2)nn1 [Compound 17]	–	–	IC50 [1, 8]: 6 µM
O=C(NCc1cn(Cc2cccc(Oc3ccccc3)c2)nn1)c1cocn1 [ND-008505]	1 µM	1 µM	–
CC[C@]1(O)C[C@H]2CN(CCc3c([nH]c4ccccc34)[C@@](C(=O)OC)(c3cc4c(cc3OC)N(C=O)[C@H]3[C@@](O)(C(=O)OC)[C@H](OC(C)=O)[C@]5(CC)C=CCN6CC[C@]43[C@@H]65)C2)C1 [vincristine]	–	–	IC50 [2]: 0.57 µM; IC50 [1, 10]: 0.2 µM; IC50 ([3]; Homo sapiens, HL60/VCR): > 100 µM
O=C(NCc1cn(Cc2cccc(Oc3ccccc3)c2)nn1)c1cocn1 [Compound 15]	–	–	IC50 [1, 8]: 1 µM
O=C(NCc1cn(Cc2ccccc2)nn1)c1coc(-c2ccccc2)n1 [Compound 9a]	–	–	IC50 [1, 9]: 4 µM
COc1ccc(-c2nc(CNCc3cn(Cc4ccc(Oc5ccccc5)cc4)nn3)co2)cc1 [ND-008169]	10 µM	3 µM	–
